Assay results published in patent US20170369474A1, “COMPOUNDS, COMPOSITIONS AND METHODS OF USE” (Aquinnah Pharmaceuticals, Inc., priority 2014, published 2017).
pIC50: −log10 of the molar value. Where two headings read alike, the source gives them in different places.

What was measured:
[1] = system: TDP-43 inclusions in PC12 cells stably expressing wild type (WT) TDP-43-GFP; test: Dose response assay for TDP-43 inhibition; assay type: cell-based; details: Rattus norvegicus, PC-12
Procedure: Exemplary compounds of the invention were evaluated for efficacy in inhibiting TDP-43 inclusions using a dose response assay. Briefly, PC12 cells stably expressing wild type (WT) TDP-43-GFP were stressed with 15 μM to induce TDP-43 inclusions. The cells were then treated with exemplary compounds of the invention and the inhibitory effect on TDP-43 inclusions was observed using fluorescent microscopy. The ratio of cells with TDP-43 inclusions was calculated based on the total number of cells with detectable GFP expression. A 12-point dose response curve was generated, and the IC50 for each compound tested was determined.

[2] = system: C. elegans expressing A315T hTDP-43; test: Neuroprotection of C. elegans; assay type: in vivo; details: 34.8 μM; A315T transgenic animals, second day of adulthood
Procedure: Age synchronized C. elegans were cultured with 34.8 μM Compound 100 and the effect on the animal's movement and motor neurons were investigated. FIGS. 2A-2C show a comparison between the crawling speed of WT and Tg nematodes expressing wt (FIG. 2A), human wt (FIG. 2B), and A315T hTDP-43 (FIG. 2C) on the second day of adulthood.

[3] = system: TDP-43 aggregates in motor neurons generated from ALS patient-derived iPSCs; test: Reduction of insoluble TDP-43 levels (immunoblot); assay type: cell-based; details: 2 μM for 48 hours
Procedure: The cells were differentiated into motor neurons for 22 days, then treated with 2 μM of Compounds 100, 101, and Compound 7 for 48 hours. The cells were lysed and TDP-43 aggregate formation was detected by immunoblot.

[4] = system: Embryonic mouse hippocampal neurons transduced with TDP-43 EGFP; test: Neuroprotection assay (total dendrite length); assay type: cell-based; details: compound at 10 times the IC50 value, treated DIV7, 9, 11; fixed DIV12
Procedure: CMF dissection buffer: 1× Hank's balanced salt solution (Ca—/Mg, 500 mL) and 10 mM HEPES, pH 7.25-7.3 (IM stock, 5 mL)
Plating media: MEM (Earle salts+/Glutamine, 95 mL), FBS (to 2.5%, 2.5 mL), Pen/Strep (1×, 1 mL), glutamine (1×, 1 mL), and D-glucose (0.6% w/v, 0.6 g)
Feeding media: neurobasal media (96 mL), B27 supplement (2 mL), Pen/Strep (1 mL), and glutamine (1 mL).
Embryonic mouse hippocampal neurons were cultured according to Kaech, S. and Banker, G. (2006) Nat Protoc 1:2406-2415 and dissected at […] from CD1 mice. Once all the hippocampi were removed, they were placed in a 15 mL conical Falcon tube on ice and brought to a final volume of 4.5 mL with CMF dissection buffer. 0.5 mL of a 2.5% trypsin-EDTA solution was then added, and the mixture was incubated at 37° C. for 15 min. […] Neurons were traced and analyzed using NeuronJ.
Results of the neuroprotection assay for exemplary compounds of the invention are summarized in Table 1, wherein A represents an average rescue total dendrite length of >150%; B represents an average rescue total dendrite length of 100-149%; C represents an average rescue total dendrite length of 50-99%; D represents an average rescue total dendrite length of 0-49%; E represents an average rescue total dendrite length of <0%; and ND signifies that the average rescue total dendrite length was not determined.

Compound | pIC50 ([1]; inhibition of TDP-43 inclusions, PC12 cells WT TDP-43-GFP, 12-point dose response, read-out: IC50) | Neuroprotective effect on motor neurons [2] | Reduction of TDP-43 aggregates in the sarkosyl insoluble fraction [3] | Average Additive Dendrite Length (%) [4] | pIC50 [1]
Cc1ccc(Cl)cc1NS(=O)(=O)c1c(C(=O)N2CCCC2)c(C)n(C)c1C [Compound 100, N-(5-chloro-2-methylphenyl)-1,2,5-trimethyl-4-(pyrrolidine-1-carbonyl)-1H-pyrrole-3-sulfonamide] | 6.60 to 7.00 | neuroprotective effect | reduced dimeric and multimeric TDP-43 aggregates | B (B represents an average rescue total dendrite length of 100-149%) | 
CCc1cccc(C)c1NS(=O)(=O)c1c(C(=O)N2CCCC2)c(C)n(C)c1C [Compound 101, N-(2-ethyl-6-methylphenyl)-1,2,5-trimethyl-4-(pyrrolidine-1-carbonyl)-1H-pyrrole-3-sulfonamide] |  |  | reduced dimeric and multimeric TDP-43 aggregates | A (A represents an average rescue total dendrite length of >150%) | 6.60 to 7.00
